pIC50: −log10 of the molar value. Where two headings read alike, the source gives them in different places.

As usually defined, the IC50 is the concentration needed to halve the response being measured. As a reminder, the pIC50 is the negative decadic logarithm of the IC50, by convention in mol/L.

For data set [1], the system named is human prostate cancer PC3 cell line. Briefly: MTT in vitro cytotoxicity assay, PC3. It is filed as cell-based. As to conditions: read-out: IC50 (µM) PC3. On the procedure: (§1) As summarized in Table 1, five cancer cell lines, including MDA-MB-231, PC3, WM9, HEL and K562 cell lines, were induced for testing the anti-cancer activities of those derivatives. The first line anti-cancer drug, vincristine, was treated as positive control. All the test compounds were dissolved in DMSO. The preliminary structure-activity relationship of all compounds against the 5 cancer cell lines was also investigated.
(§2) Human erythroleukemic cell lines HEL and K562, human breast cell lines MDA-MB-231, human prostate cell lines PC3 and human melanoma cell lines WM9 were cultured in RPMI (HEL and K562) or DMEM (MDA-MB-231, PC3, WM9) medium (high glucose) supplemented with 5% FBS (HyClone, GE Healthcare, Parramatta, Australia) and 1% ampicillin/streptomycin.
(§3) Cells were cultured in 96-well plates at densities of 1 × 10^5/well. The plates were pre-incubated at 37 °C for 24 h to allow adaptation of cells prior to the addition of the test compounds. Then, compounds were added to cells in triplicate in several doses, and incubated for an additional 2 days. The 50% inhibitory concentrations (IC50) were measured for fangchinoline derivatives using MTT (diphenyltetrazolium bromide) assay.

A further data set concerns WM9 cells. Kind of data set: Annexin V-FITC/PI flow cytometry apoptosis assay. It is filed as cell-based, human. To be noted: 2.5 µM, 24 h. The method, then: The Annexin V-FITC-A/PI apoptosis detection kit was induced to test the further role of compound 4g in inhibiting WM9 cell death (Figure 2). Before undergoing the flow cytometry, the WM9 cells were treated with 0 and 2.5 µM compound 4g for 24 h, and then Annexin V-FITC and PI were put into use.
For apoptosis analysis, WM9 cells were incubated with compounds or DMSO as a vehicle control for 24 h. Cells were then washed with cold PBS, stained with Annexin V-FITC and Propidium Iodide (PI) using apoptosis detection Kit (BD Biosciences, Bergen, NJ, USA).
Figure 2 Compound 4g induced apoptosis in WM9 cells. WM9 cells were stained with Annexin V-FITC and PI by incubating at room temperature for 15 min after treated cells with 2.5 µM 4g for 24 h. Finally, apoptosis analysis was carried out by flow cytometry. TEXT PRINTED IN THE PICTURE: Y-37: WM9 24h: Q4-UL 1.2% (2.5 μM); WM9 24h: Q4-UR 8.8% (2.5 μM); WM9 24h: Q4-LL 74.2% (2.5 μM); WM9 24h: Q4-LR 15.8% (2.5 μM) DOUBTS OF THE COPYIST ABOUT THIS PICTURE: Y-37, Q4-UR: 8.8% or 6.8%; the first digit is partly hidden by plotted points / The Control plot also prints quadrant percentages (Q4-UL 0.7%, Q4-UR 0.0%, Q4-LL 98.9%, Q4-LR 0.3%). They are not listed because Control is not a substance.
On the technique in general: In flow cytometry, cells or beads pass a laser one at a time.

For data set [2], the system named is normal human liver cell line HL7702. Briefly: Toxicity on normal human liver cell line. It is filed as cell-based. As to conditions: HL7702 versus cancer cell lines. The method, then: (§4) 3 fangchinoline derivatives were also tested for their toxicities on normal human liver cell line HL7702.
as §3

The nature of data set [3]: Toxicity on normal human liver cell line. It is filed as cell-based. To be noted: HL7702 normal liver cells; normal human liver cell line HL7702; read-out: IC50 against HL7702 cell growth. On the procedure:
as §4, §3

In data set [4] the test system is human melanoma WM9 cell line. Kind of data set: MTT in vitro cytotoxicity assay, WM9. As to conditions: for IC50: Homo sapiens, read-out: IC50 (µM) WM9. It is filed as cell-based. On the procedure: as §1, §2, §3
Data set [5] deals with human leukaemia HEL cell line. Briefly: MTT in vitro cytotoxicity assay, HEL. It is filed as cell-based. To be noted: read-out: IC50 (µM) HEL. On the procedure:
as §1, §2, §3

Data set [6] concerns human breast cancer MDA-MB-231 cell line. Kind of data set: MTT in vitro cytotoxicity assay, MDA-MB-231. It is filed as cell-based. As to conditions: read-out: IC50 (µM) MDA-MB-231. The method, then: as §1, §2, §3
The next data set has as its system Caspase-3. Briefly: Western blot of apoptosis indicators, Caspase-3. It is filed as cell-based, human. To be noted: WM9 cells, 2.5 µM, 24 h. On the procedure:
(§5) Western blot analysis was induced to elucidate the effect of compound 4g on protein levels to further expatiate how compound 4g induces apoptosis in WM9 cells (Figure 3). The Bcl-xl, Bcl-2 and Survivin display repressor activities in cell death.
(§6) The total protein was collected from WM9 cells using RIPA lysis buffer, and separated on 10% SDS Page, as described. The protein was then transferred to polyvinylidene fluoride (PVDF, 0.2 µm) membrane, and blocked by 5% BSA solution for 2 h at room temperature. The membrane was then incubated with specific primary antibodies overnight at 4 °C, followed by incubation with corresponding HRP-conjugated secondary antibodies for 2 h at room temperature. Expression of particular proteins was measured by applying ECL select substrate (Li-Cor, Lincoln, NE, USA). Polyclonal rabbit antibody for Bcl-2 was obtained from Abcam (Abcam, Cambridge, UK); Bcl-xl, Survivin, Casepase-3 and PARP antibodies from Cell Signalling Technology (CST, Danvers, MA, USA) and GAPDH from Goodhere Biotechnology (Hangzhou, Zhejiang, China).
(§7) Figure 3 Fangchinoline derivative 4g affects the protein levels of the apoptotic genes in WM9 cell line. […] WM9 cells were treated with 2.5 μM 4g for 24 h.
On the technique in general: Immunoblotting shows a protein as a band on a membrane.

For another data set, the system named is Bcl-2. Kind of data set: Western blot of apoptosis indicators, Bcl-2. It is filed as cell-based, human. As to conditions: WM9 cells, 2.5 µM, 24 h. The method, then: as §5, §6, §7
For the next data set, the system named is Bcl-xl. Kind of data set: Western blot of apoptosis indicators, Bcl-xl. It is filed as cell-based, human. To be noted: WM9 cells, 2.5 µM, 24 h. On the procedure: as §5, §6, §7
Another data set has as its system Survivin. Kind of data set: Western blot of apoptosis indicators, Survivin. As to conditions: WM9 cells, 2.5 µM, 24 h. It is filed as cell-based, human. On the procedure:
as §5, §6, §7

In data set [7] the test system is human leukaemia K562 cell line. Briefly: MTT in vitro cytotoxicity assay, K562. It is filed as cell-based. To be noted: read-out: IC50 (µM) K562. The method, then:
as §1, §2, §3

The next data set concerns PARP. Kind of data set: Western blot of apoptosis indicators, PARP. It is filed as cell-based, human. To be noted: WM9 cells, 2.5 µM, 24 h. The method, then: as §5, §6, §7
In data set [8] the test system is human hepatocellular carcinoma cell line PLC/PRF/5. Details: method as in PMID 21418191. As to conditions: autophagy induction at relatively low concentrations; cited from earlier work.
Data set [9] concerns human hepatocellular carcinoma cell line HepG2. The arrangement: method as in PMID 21418191. To be noted: autophagy induction at relatively low concentrations; cited from earlier work.

For the molecule `COc1cc([N+](=O)[O-])c2cc1Oc1ccc(cc1)C[C@H]1c3cc(c(OC)cc3CCN1C)Oc1c(OC(=O)c3ccccc3)c(OC)cc3c1[C@H](C2)N(C)CC3` [Compound 4g, 7-O-Benzoyl-14-nitro-fangchinoline], the IC50 in data set [1] (PC-3, MTT assay after 48 h of treatment, averaged from at least 3 independent experiments, variation ±10%) worked out at 2.03 µM; in [4] (WM9, MTT assay after 48 h of treatment, averaged from at least 3 independent experiments, variation ±10%), 1.07 µM; in data set [5] (MTT assay after 48 h of treatment, averaged from at least 3 independent experiments, variation ±10%), 1.98 µM; in data set [6] (MDA-MB-231, MTT assay after 48 h of treatment, averaged from at least 3 independent experiments, variation ±10%), 2.92 µM; in [7] (K562, MTT assay after 48 h of treatment, averaged from at least 3 independent experiments, variation ±10%) it was 2.09 µM. The “WM9 cells in the early apoptosis state” value with WM9 cells (control 0.0%) is given as 8.8%. The “WM9 cells in the late apoptosis state” value with WM9 cells (control 0.3%) was found to be 15.8%. Besides, the “fold lower toxicity on HL7702 than inhibition on cancer cell lines” value in data set [2] is on record as ~5 fold. Moreover, in data set [3], the half-maximal inhibitory concentration (IC50) at 2 days stood at 5 µM. The “times more active than first stage derivative 3i on WM9” value in data set [4] (WM9 IC50 ratio versus 3i) is 2.5 times. Further, the “times more active than fangchinoline on WM9” value in data set [4] (WM9 IC50 ratio versus fangchinoline) is on record as 12.2 times. In addition, the “times more active than vincristine on WM9” value in data set [4] (WM9 IC50 ratio versus vincristine) was 9.8 times. Further, the “Pro-Caspase-3 / Cleaved-Caspase-3 (Western blot)” value in the data set on Caspase-3 is on record as “activation of executioner from Pro-Caspase-3 to Cleaved-Caspase-3”. The “Bcl-2 expression (Western blot)” value with Bcl-2 was “inhibited”. Moreover, the “Bcl-xl expression (Western blot)” value in the data set with Bcl-xl is given as “inhibited”. For the same molecule, the “Survivin expression (Western blot)” value with Survivin is listed as “inhibited”. Besides, the “full-length PARP level (Western blot)” value in the data set with PARP was “down-regulation of full-length PARP”.
Regarding `COc1ccc2cc1Oc1ccc(cc1)C[C@H]1c3cc(c(OC)cc3CCN1C)Oc1c(O)c(OC)cc3c1[C@H](C2)N(C)CC3` [Fangchinoline], the IC50 amounted to 11.1 µM in data set [1] (PC-3, 48 h); 13.1 µM in [4] (WM9, 48 h); 8.95 µM in [5] (48 h); 12.3 µM in data set [6] (MDA-MB-231, 48 h); 10.3 µM in [7] (K562, 48 h). For the same molecule, the pIC50 in data set [8] and in [9] was ~5.30 in each case.

The record behind these values is publication PMC6150242, “Design, Synthesis and Anticancer Evaluation of Fangchinoline Derivatives” (Molecules : A Journal of Synthetic Chemistry and Natural …, 2017).
